Values after ≈ are worked out from the molar mass of the structure shown.

13 molecules from patent US20220280587A1, “MEDICAL GELS CONTAINING A QUATERNARY AMMONIUM COMPOUND, PHENOXYETHANOL, ALOE VERA JUICE, AND NATURAL SPORICIDAL MOISTURIZERS” (priority 2021, published 2022) can be followed below.

Holding throughout (type): cell-based
Assay [1] concerns C. botulinum spores. Briefly: microbe, parasite or virus in culture. The conditions noted are these: for MIC / MBC: Clostridium botulinum; for MIC: read-out: Sporostatic MIC (mM); for MBC: read-out: Sporicidal MIC (mM).
For assay [2], the system named is Pseudomonas aeruginosa. Kind of assay: Bactericidal / inhibitory concentration against Pseudomonas aeruginosa.
Assay [3] relates to P. digitatum. Briefly: Antifungal combination of potassium sorbate and vanillin (MIC, FIC isobologram). To be noted: Penicillium digitatum.
In assay [4] the test system is P. glabrum. Described as above.
For assay [5], the system named is P. italicum. The description is as above. To be noted: Penicillium italicum.

`O=Cc1ccccc1` [Benzaldehyde]: the MIC in assay [1] was 0.6 mM (≈ 63.7 µg/mL).
Take `CCCCC=O` [Valeraldehyde]: the MIC in assay [1] was determined as 2.44 mM (≈ 210 µg/mL).
Consider `CC(C)C=O` [Isobutyraldehyde], for which, in assay [1], the MBC was found to be 39 mM (≈ 2810 µg/mL) and the MIC worked out at 0.6 mM (≈ 43.3 µg/mL).
For the molecule benzalkonium chloride, the entries for the “Concentration that kills Pseudomonas aeruginosa” value in assay [2] (benzalkonium chloride alone) and in assay [2] (when aloe vera juice is present at 10%) were 0.13% and 0.10%, respectively.
Turning to `O=CC(=O)c1ccccc1` [Phenylglyoxal], the MIC in assay [1] stood at 0.6 mM (≈ 80.5 µg/mL).
Consider `O=CCc1ccccc1` [Phenylacetaldehyde], for which the MIC in assay [1] came to 0.6 mM (≈ 72.1 µg/mL).
For the molecule `COc1cc(C=O)ccc1O` [Vanillin], the MIC in assay [3] (potassium sorbate 0 PPM) turned out to be 1100 µg/mL; in assay [3] (potassium sorbate 50 PPM), 300 µg/mL; in assay [3] (potassium sorbate 100 PPM) it was 100 µg/mL; in assay [4] (potassium sorbate 0 PPM), 1200 µg/mL; in assay [4] (potassium sorbate 100 PPM), 1100 µg/mL; in assay [4] (potassium sorbate 300 PPM), 500 µg/mL. In addition, the MIC in assay [4] (potassium sorbate 500 PPM) was 100 µg/mL; in assay [1] it was 0.6 mM (≈ 91.3 µg/mL); in assay [5] (potassium sorbate 0 PPM), 1100 µg/mL; in assay [5] (potassium sorbate 100 PPM), 300 µg/mL; in assay [5] (potassium sorbate 150 PPM) it was 100 µg/mL. The MBC in assay [1] was 1.25 mM (≈ 190 µg/mL).
For `O=Cc1ccc2c(c1)OCO2` [Piperonal], in assay [1], the MIC amounted to 0.6 mM (≈ 90.1 µg/mL).
Same read-out and setting: under `CCCCCC(C=O)=Cc1ccccc1` [α-Amylcinnamaldehyde] stands 0.6 mM (≈ 121 µg/mL).
Take `CC(=O)C=O` [Pyruvaldehyde]: in assay [1], the “Sporicidal MIC” value stood at 156 mM and the “Sporostatic MIC” value is on record as 2.44 mM.
On the same counts, the results for `CCCCCCC=O` [Hepaldehyde] are greater than 2500 mM and 0.60 mM.
For the molecule `O=CC=Cc1ccccc1` [Cinnamaldehyde], the MIC in assay [1] turned out to be 0.78 mM (≈ 103 µg/mL).
Regarding `CC=O` [Acetaldehyde], the MIC in assay [1] is 0.78 mM (≈ 34.4 µg/mL).
